How the values were obtained:
[1] = test system: White Spot Syndrome Virus (WSSV); test: Prevention for White Spot Syndrome Virus infected shrimp; type: in vivo, Penaeus Chinesis
Procedure: The Shrimps (Penaeus Chinesis, size 6˜8 cm) were immersed in 0.01˜10 ppm of EnviroVax for 1.5 hr during 3 days and injected viral homogenate at 4 day.
The Viral homogenate was prepared as follows:
Homogenize 1 g of tissue (gill and stomach) in 1 ml PBS.
Centrifuge at 2,000 rpm for 10 min. at 4° C.
Filter the supernatant by using the 0.45 μm membrane filter.
Dilute the filtrate (1 part of filtrate to 10 parts of PBS).

[2] = test system: Streptococcus sp.; test: Prevention effect for artificial infection (abdominal injection of bacteria); type: in vivo, Bastardhalibut; conditions: for Mortality during Cultivation: dead of 20 fish
Procedure: The water temperature was maintained at 20° C. (±2° C. ) throughout the experiment.
As the same method of above Experiment 1, fishes of both control group and experiment group were prepared and artificially infected by direct abdominal injection of Edwardsiella tarda 10^5 CFU per 1 fish. Each experimental fish was moved to fish tanks for monitoring and monitored for mortality according to infection for 2 weeks and viability after 2 weeks.
Bastardhalibut and Sebastes schlegeli were infected by Streptococcus sp. by abdominal injection with the same method of fish breeding, δ-aminolevulinic acid treatment and artificial infection carried out in Experiment 1 and 2. Each experimental fish was moved to fish tanks for monitoring and monitored for mortality according to infection for 2 weeks. […] The treated group, with δ-aminolevulinic acid by tank administration method and oral administration method, has shown viability of higher than 65%.

[3] = test system: Iridovirus; test: Treatment effect of virus-infected fish; type: in vivo, Pagrus major; conditions: for mortality during 10 days: 30 fish
From the text: In this present example, as carried out in Experiment 2 of Example 3, from the result that inhibition effect of virus infection in vitro by δ-aminolevulinic acid treatment was ascertained, fish whose diseases were in progress by virus infection, decrease in the mortality of infected fish body was ascertained when treated with δ-aminolevulinic acid. Pagrus major diagnosed by the PCR method among a school of Iridovirus-infected fish from a fish farm nearby Yeosu, 30 of each were separated and contained in […]. They were divided to group A, B, C and control group. Temporary changes in mortality was ascertained in 10 ppm δ-aminolevulinic acid-treated A group, 1.0 ppm δ-aminolevulinic acid-treated B group, 0.1 ppm δ-aminolevulinic acid-treated C group and untreated control group by using δ-aminolevulinic acid produced by the inventor. Each δ-aminolevulinic acid-treated group was treated 3 times in […] and 10 days results were reported. In the case of actual fish farms, the mortality by virus infection reaches up to 70%. However, as shown in the result of infected fish of Table 28, in the present experimental condition, cumulative mortality of infected fish without treatment has reached up to 50% until 10th day of experimental period. In δ-aminolevulinic acid-treated groups, low mortalities of 17%, 17% and 27% was shown in the condition of A, B and C groups during 10 days, respectively.

[4] = test system: CHSE (Chinook Salmon Embryo); conditions: 24 h
Procedure: δ-aminolevulinic acid feed were prepared to 1.0 M concentration (0. 167 g/mL HBSS) and diluted by 10-fold dilution method. 100 μl of each fish cell line suspension of 2.5×10^5 were placed into 96-well microplate and then, 100 μl of each of the resulting diluted solution, 4 well/dilution unit, were added respectively. Fish cell lines, which were used for this cell toxicity experiment of δ-aminolevulinic acid, were RTG-2 (Rainbow Trout Gonad), FHM (Fathead Minnow Epithelioma) and CHSE (Chinook Salmon Embryo) lotted out from Dr. M. Yoshimizu of the Department of Fisheries, Hokkaido University, Japan. For these experimental cells, 100 U/mL penicillin (Sigma), 100 μl/mL streptomycin (Sigma) and MEM media supplemented with 5% fetal bovine serum (FBS, Gibco) for cell culture were used. Cultured cells in 96-well microplate was incubated for 3 hrs at 15° C. and δ-aminolevulinic acid were added to wells at amounts of 100 μl of 0, 1.0, 10, 50 and 100 mM and incubated for 24 hrs at 18° C. As a control group, instead of δ-aminolevulinic acid, HBSS was added at the same amount. […] Absorbance was measured with an ELISA reader at 570 μl.

## NCC(=O)CCC(=O)O [δ-aminolevulinic acid]
[1]; 0.01 ppm, after injection for 3 weeks
  Cumulative mortality: 100%
[1]; 0.01 ppm, day 1, 50 shrimp
  Mortality after injection for 3 weeks: 0
[1]; 0.01 ppm, day 2, 50 shrimp
  Mortality after injection for 3 weeks: 0
[1]; 0.01 ppm, day 3, 50 shrimp
  Mortality after injection for 3 weeks: 15
[1]; 0.01 ppm, day 4, 50 shrimp
  Mortality after injection for 3 weeks: 20
[1]; 0.01 ppm, day 5, 50 shrimp
  Mortality after injection for 3 weeks: 12
[1]; 0.01 ppm, day 6, 50 shrimp
  Mortality after injection for 3 weeks: 3
[1]; 0.1 ppm, after injection for 3 weeks
  Cumulative mortality: 12%
[1]; 0.1 ppm, day 1, 50 shrimp
  Mortality after injection for 3 weeks: 0
[1]; 0.1 ppm, day 2, 50 shrimp
  Mortality after injection for 3 weeks: 0
[1]; 0.1 ppm, day 3, 50 shrimp
  Mortality after injection for 3 weeks: 2
[1]; 0.1 ppm, day 4, 50 shrimp
  Mortality after injection for 3 weeks: 3
[1]; 0.1 ppm, day 5, 50 shrimp
  Mortality after injection for 3 weeks: 1
[1]; 0.1 ppm, day 6, 50 shrimp
  Mortality after injection for 3 weeks: 0
[1]; 0.1 ppm, day 7, 50 shrimp
  Mortality after injection for 3 weeks: 0
[1]; 0.1 ppm, day 21, 50 shrimp
  Mortality after injection for 3 weeks: 0
[1]; 1.0 ppm, after injection for 3 weeks
  Cumulative mortality: 8%
[1]; 1.0 ppm, day 1, 50 shrimp
  Mortality after injection for 3 weeks: 0
[1]; 1.0 ppm, day 2, 50 shrimp
  Mortality after injection for 3 weeks: 1
[1]; 1.0 ppm, day 3, 50 shrimp
  Mortality after injection for 3 weeks: 2
[1]; 1.0 ppm, day 4, 50 shrimp
  Mortality after injection for 3 weeks: 1
[1]; 1.0 ppm, day 5, 50 shrimp
  Mortality after injection for 3 weeks: 0
[1]; 1.0 ppm, day 6, 50 shrimp
  Mortality after injection for 3 weeks: 0
[1]; 1.0 ppm, day 7, 50 shrimp
  Mortality after injection for 3 weeks: 0
[1]; 1.0 ppm, day 21, 50 shrimp
  Mortality after injection for 3 weeks: 0
[1]; 10 ppm, after injection for 3 weeks
  Cumulative mortality: 6%
[1]; 10 ppm, day 1, 50 shrimp
  Mortality after injection for 3 weeks: 0
[1]; 10 ppm, day 2, 50 shrimp
  Mortality after injection for 3 weeks: 0
[1]; 10 ppm, day 3, 50 shrimp
  Mortality after injection for 3 weeks: 3
[1]; 10 ppm, day 4, 50 shrimp
  Mortality after injection for 3 weeks: 0
[1]; 10 ppm, day 5, 50 shrimp
  Mortality after injection for 3 weeks: 0
[1]; 10 ppm, day 6, 50 shrimp
  Mortality after injection for 3 weeks: 0
[1]; 10 ppm, day 7, 50 shrimp
  Mortality after injection for 3 weeks: 0
[1]; 10 ppm, day 21, 50 shrimp
  Mortality after injection for 3 weeks: 0
[1]; immersion 1.0 ppm, 1.5 hr during 3 days before virus injection, 3 weeks
  Cumulative mortality: 8%
[1]; immersion 10 ppm, 1.5 hr during 3 days before virus injection, 3 weeks
  Cumulative mortality: 6%
[2]; orally, 0.1 ppm in feed
  Viability: 65%
  Mortality during Cultivation: 7
[2]; orally, 1.0 ppm in feed
  Viability: 65%
  Mortality during Cultivation: 7
[2]; orally, 10 ppm in feed
  Viability: 80%
  Mortality during Cultivation: 4
[2]; orally, 100 ppm in feed
  Viability: 85%
  Mortality during Cultivation: 3
[2]; to fish tanks, 0.01 ppm
  Viability: 60%
  Mortality during Cultivation: 8
[2]; to fish tanks, 0.1 ppm
  Viability: 65%
  Mortality during Cultivation: 7
[2]; to fish tanks, 1.0 ppm
  Viability: 75%
  Mortality during Cultivation: 5
[2]; to fish tanks, 10 ppm
  Viability: 85%
  Mortality during Cultivation: 3
[3]; 0.1 ppm, day 0
  Viable Fish number According to Elapsed days After Treatment: 30
[3]; 0.1 ppm, day 1
  Viable Fish number According to Elapsed days After Treatment: 25
[3]; 0.1 ppm, day 2
  Viable Fish number According to Elapsed days After Treatment: 25
[3]; 0.1 ppm, day 3
  Viable Fish number According to Elapsed days After Treatment: 23
[3]; 0.1 ppm, day 4
  Viable Fish number According to Elapsed days After Treatment: 23
[3]; 0.1 ppm, day 5
  Viable Fish number According to Elapsed days After Treatment: 23
[3]; 0.1 ppm, day 6
  Viable Fish number According to Elapsed days After Treatment: 22
[3]; 0.1 ppm, day 7
  Viable Fish number According to Elapsed days After Treatment: 22
[3]; 0.1 ppm, day 8
  Viable Fish number According to Elapsed days After Treatment: 22
[3]; 0.1 ppm, day 9
  Viable Fish number According to Elapsed days After Treatment: 22
[3]; 0.1 ppm, day 10
  Viable Fish number According to Elapsed days After Treatment: 22
[3]; 1.0 ppm, day 0
  Viable Fish number According to Elapsed days After Treatment: 30
[3]; 1.0 ppm, day 1
  Viable Fish number According to Elapsed days After Treatment: 28
[3]; 1.0 ppm, day 2
  Viable Fish number According to Elapsed days After Treatment: 26
[3]; 1.0 ppm, day 3
  Viable Fish number According to Elapsed days After Treatment: 26
[3]; 1.0 ppm, day 4
  Viable Fish number According to Elapsed days After Treatment: 26
[3]; 1.0 ppm, day 5
  Viable Fish number According to Elapsed days After Treatment: 25
[3]; 1.0 ppm, day 6
  Viable Fish number According to Elapsed days After Treatment: 25
[3]; 1.0 ppm, day 7
  Viable Fish number According to Elapsed days After Treatment: 25
[3]; 1.0 ppm, day 8
  Viable Fish number According to Elapsed days After Treatment: 25
[3]; 1.0 ppm, day 9
  Viable Fish number According to Elapsed days After Treatment: 25
[3]; 1.0 ppm, day 10
  Viable Fish number According to Elapsed days After Treatment: 25
[3]; 10 ppm, day 0
  Viable Fish number According to Elapsed days After Treatment: 30
[3]; 10 ppm, day 1
  Viable Fish number According to Elapsed days After Treatment: 28
[3]; 10 ppm, day 2
  Viable Fish number According to Elapsed days After Treatment: 26
[3]; 10 ppm, day 3
  Viable Fish number According to Elapsed days After Treatment: 26
[3]; 10 ppm, day 4
  Viable Fish number According to Elapsed days After Treatment: 26
[3]; 10 ppm, day 5
  Viable Fish number According to Elapsed days After Treatment: 26
[3]; 10 ppm, day 6
  Viable Fish number According to Elapsed days After Treatment: 26
[3]; 10 ppm, day 7
  Viable Fish number According to Elapsed days After Treatment: 25
[3]; 10 ppm, day 8
  Viable Fish number According to Elapsed days After Treatment: 25
[3]; 10 ppm, day 9
  Viable Fish number According to Elapsed days After Treatment: 25
[3]; 10 ppm, day 10
  Viable Fish number According to Elapsed days After Treatment: 25
[3]; A group, 10 ppm
  mortality during 10 days: 17%
[3]; B group, 1.0 ppm
  mortality during 10 days: 17%
[3]; C group, 0.1 ppm
  mortality during 10 days: 27%
[4]
  safe range of toxicity: below 10 mM
